The text below walks through data of patent US6552078B2, “6-methoxy-2-naphthylacetic acid prodrugs” (priority 1999, dated 2003).

One data set is described as follows: Chemical Hydrolysis. Type of data set: physicochemical.
The nature of data set [1]: In Vitro Hydrolysis in Rat Plasma. Type of data set: in vitro ADME.
The subject of a further data set is Rat Paw Edema. Kind of data set: Rat Paw Edema. It counts as in vivo. The conditions noted are these: Dose (mg/kg): Example 11 80; Example 12 121.

`COc1ccc2cc(CC(=O)OCC(C)=O)ccc2c1` [Example 1, (6-methoxy-naphthalen-2-yl)-acetic acid 2-oxo-propyl ester]: the values for the half-life in the data set “Chemical Hydrolysis” (pH 3), in the data set “Chemical Hydrolysis” (pH 7.4) and in “Chemical Hydrolysis” (pH 8) were greater than 1.04 days, 0.917 days and 0.292 days, respectively. For the same compound, the metabolised at 2 h in data set [1] (in ˜2 h, column head pH 3, read-out: In Vitro Hydrolysis in Rat Plasma: conversion to 6-MNA) worked out at 21%.
Regarding `COc1ccc2cc(CC(=O)OCCOCCO[N+](=O)[O-])ccc2c1` [Example 2, (6-Methoxy-naphthalen-2-yl)-acetic acid 2-(2-nitrooxy-ethoxy)-ethyl ester], the half-life in the data set “Chemical Hydrolysis” (pH 3) is greater than 12.5 days; in “Chemical Hydrolysis” (pH 7.4), roughly 11.7 days; in the data set “Chemical Hydrolysis” (pH 8) it was roughly 11.7 days; in data set [1] (column head pH 3, read-out: In Vitro Hydrolysis in Rat Plasma: T1/2), greater than 5 min.
As for `COc1ccc2cc(CC(=O)NO)ccc2c1` [Example 11, N-Hydroxy-2-(6-methoxy-naphthalen-2-yl)-acetamide], in the data set with Rat Paw Edema, the “Rat Paw Edema % Inhibition” value came to 59.6%.
